What is called MIC90 is an inhibitory concentration at the 90% level, which refers to growth in some studies and to a panel of isolates in others. A low value points to greater potency. The MIC is the least concentration at which growth counts as inhibited. Low readings indicate inhibition by little substance, high ones a need for much substance. A word on the CC50: it is the concentration at which the toxic effect on the cells reaches its halfway point. Low values mean greater toxicity to the cells, high ones lower toxicity to the cells.

Our source for the MIC90, MIC and CC50 values is ChEMBL document CHEMBL3832761, “MMV Pathogen Box Bioactivity Data” (2017).

Holding throughout (type): functional
Assay [1] deals with Mycobacterium tuberculosis. As to the kind of experiment: AntiMycobacterium tuberculosis activity Non-Replicating form: Average MIC90 (uM).
The subject of assay [2] is Mycobacterium tuberculosis. As to the kind of experiment: AntiMycobacterium tuberculosis activity 1-week GAST/Fe MIC (uM). The conditions noted are these: 168 h.
Assay [3] concerns Mycobacterium tuberculosis. The assay can be described thus: AntiMycobacterium tuberculosis activity 2-week GAST/Fe MIC (uM). The conditions noted are these: 336 h.
For assay [4], the system named is Mycobacterium tuberculosis. The assay can be described thus: AntiMycobacterium tuberculosis activity 1-week 7H9/ADC/Tw MIC (uM). The conditions noted are these: 168 h.
For assay [5], the system named is Mycobacterium tuberculosis. As to the kind of experiment: AntiMycobacterium tuberculosis activity 2-week 7H9/ADC/Tw MIC (uM). Particulars: 336 h.
Assay [6] relates to Mycobacterium tuberculosis. The assay can be described thus: AntiMycobacterium tuberculosis activity 2-week Alamar Blue 7H9/ADC/Tw MIC (uM). Particulars: 336 h.
For assay [7], the system named is Mycobacterium tuberculosis. The assay can be described thus: AntiMycobacterium tuberculosis activity 1-week 7H9/glucose/BSA/Tx MIC (uM). The conditions noted are these: 168 h.
For assay [8], the system named is Mycobacterium tuberculosis. As to the kind of experiment: AntiMycobacterium tuberculosis activity 2-week 7H9/glucose/BSA/Tx MIC (uM). Particulars: 336 h.
Assay [9] deals with Mycobacterium tuberculosis. As to the kind of experiment: AntiMycobacterium tuberculosis activity 1-week 7H9/DPPC/cholesterol/BSA/Tx MIC (uM). The conditions noted are these: 168 h.
For assay [10], the system named is Mycobacterium tuberculosis. The assay can be described thus: AntiMycobacterium tuberculosis activity 2-week 7H9/DPPC/cholesterol/BSA/Tx MIC (uM). Particulars: 336 h.
The test system of assay [11] is Mycobacterium tuberculosis. The assay can be described thus: AntiMycobacterium tuberculosis activity 1-week 7H9/cholesterol/BSA/Tx MIC (uM). Particulars: 168 h.
Assay [12] concerns Mycobacterium tuberculosis. As to the kind of experiment: AntiMycobacterium tuberculosis activity 2-week Alamar Blue 7H9/cholesterol/BSA/Tx MIC (uM). Particulars: 336 h. On the technique in general: Alamar Blue is a resazurin reagent that responds to reducing activity.
Assay [13] relates to Mycobacterium tuberculosis. As to the kind of experiment: (§1) AntiMycobacterium tuberculosis activity day 10 in 7H9/2.5mM butyrate/pH6/0.1mM nitrite MIC90 (uM). The conditions noted are these: 240 h.
Assay [14] concerns Mycobacterium tuberculosis. As to the kind of experiment: AntiMycobacterium tuberculosis activity day 21 in 7H9/2.5mM butyrate/pH6/0.1mM nitrite MIC90 (uM). The conditions noted are these: 504 h.
The subject of assay [15] is Mycobacterium tuberculosis. The assay is described as §1. The conditions noted are these: 240 h. The source holds these as a separate data set.
The subject of assay [16] is Mycobacterium tuberculosis. As to the kind of experiment: AntiMycobacterium tuberculosis activity day 21 MIC99 in 7H9/2.5mM butyrate/pH6/0.1mM nitrite MIC99 (uM). Particulars: 504 h.
In assay [17] the test system is Mycobacterium tuberculosis. The assay can be described thus: AntiMycobacterium tuberculosis activity Replicating form: Average MIC90 (uM).
The next assay has as its system HepG2. As to the kind of experiment: HepG2 CC50 (uM) Cytotoxicity. Particulars: Homo sapiens.

Converted amounts (≈) assume the structure as drawn.

Regarding `O=C1O[C@@H](COc2ccon2)CN1c1cc(F)c(C2=CCN(Cc3ccccc3)CC2)c(F)c1`, the MIC90 in assay [1] was determined as 2.88 µM (≈ 1.35 µg/mL); in [13] it was 6.25 µM (≈ 2.92 µg/mL); in assay [14] it was 6.25 µM (≈ 2.92 µg/mL); in assay [15], 25 µM (≈ 11.7 µg/mL); in assay [17] it was 3.51 µM (≈ 1.64 µg/mL). Further, the MIC stood at 0.78 µM (≈ 0.365 µg/mL) in assay [2]; 1.56 µM (≈ 0.729 µg/mL) in [3]; 0.39 µM (≈ 0.182 µg/mL) in assay [4]; 0.6 µM (≈ 0.28 µg/mL) in assay [5]; 0.39 µM (≈ 0.182 µg/mL) in assay [6]; 0.78 µM (≈ 0.365 µg/mL) in assay [7]. Further, the minimum inhibitory concentration (MIC) was 0.78 µM (≈ 0.365 µg/mL) in assay [8]; 1.56 µM (≈ 0.729 µg/mL) in assay [9]; 1.56 µM (≈ 0.729 µg/mL) in assay [10]; 1.2 µM (≈ 0.561 µg/mL) in [11]; 0.6 µM (≈ 0.28 µg/mL) in [12]; 25 µM (≈ 11.7 µg/mL) in [16]. Besides, in the assay on HepG2, the CC50 came out at 30.4 µM.

As for `CCc1nc2ccc(Cl)cn2c1C(=O)NCc1ccc(N2CCC(c3ccc(OC(F)(F)F)cc3)CC2)cc1` [TELACEBEC], the MIC90 in [1] was 0.01 µM (≈ 0.00557 µg/mL); in assay [13] it was at most 0.04 µM; in assay [14], at most 0.04 µM; in assay [15], at most 0.04 µM; in assay [17] it was 0.01 µM (≈ 0.00557 µg/mL). Also, the minimum inhibitory concentration (MIC) was under 0.02 µM in [2]; under 0.02 µM in [3]; over 50 µM in [4]; over 50 µM in [5]; 0.02 µM (≈ 0.0111 µg/mL) in assay [6]; 0.1 µM (≈ 0.0557 µg/mL) in assay [7]. Also, the MIC in [8] was over 50 µM; in [9], under 0.02 µM; in assay [10], 0.02 µM (≈ 0.0111 µg/mL); in [11], under 0.02 µM; in assay [12], 0.02 µM (≈ 0.0111 µg/mL); in assay [16] it was at most 0.04 µM. The molecule also displayed a CC50 in the assay on HepG2 of over 100 µM.

The molecule `COc1ccc(-c2cc(NC(=O)c3ccc(F)cc3Cl)ccc2OC)cc1` registered an MIC90 in assay [1] of 67.7 µM (≈ 26.1 µg/mL). Also, the minimum inhibitory concentration (MIC) in assay [2] turned out to be 3.13 µM (≈ 1.21 µg/mL); in [3], 19 µM (≈ 7.33 µg/mL); in [6], 50 µM (≈ 19.3 µg/mL); in [11] it was 25 µM (≈ 9.65 µg/mL). The CC50 in the assay with HepG2 was over 100 µM.

For the molecule `CCC(Sc1nc2ccccc2o1)C(=O)Nc1nnc(C)s1` (centres undefined), the MIC90 in [1] was 4.49 µM (≈ 1.5 µg/mL); in assay [13] it was 50 µM (≈ 16.7 µg/mL); in [14] it was 50 µM (≈ 16.7 µg/mL); in assay [15], over 50 µM; in assay [17], 68.4 µM (≈ 22.9 µg/mL). In addition, the MIC was 9.4 µM (≈ 3.14 µg/mL) in [2]; 12.5 µM (≈ 4.18 µg/mL) in assay [3]; over 50 µM in assay [4]; over 50 µM in assay [5]; over 50 µM in assay [6]; over 50 µM in [7]. In addition, the MIC in assay [8], in assay [9], in assay [10], in assay [11], in assay [12] and in assay [16] was over 50 µM throughout. Moreover, the cytotoxic concentration (CC50) in the assay with HepG2 was over 100 µM.

As to `CCOC(=O)NC(=O)c1ccsc1NC(=O)c1nc2ccccc2s1`, the MIC90 in [1] is 0.34 µM (≈ 0.128 µg/mL); in assay [13], at most 0.04 µM; in assay [14], at most 0.04 µM; in [15], 0.19 µM (≈ 0.0713 µg/mL); in [17], 0.69 µM (≈ 0.259 µg/mL). For the same molecule, the MIC in assay [2] is under 0.02 µM; in [3] it was under 0.02 µM; in assay [4], 0.2 µM (≈ 0.0751 µg/mL); in assay [5], 0.15 µM (≈ 0.0563 µg/mL); in assay [6], 0.15 µM (≈ 0.0563 µg/mL); in [7] it was 0.2 µM (≈ 0.0751 µg/mL). The minimal inhibitory concentration (MIC) in [8] stood at 0.2 µM (≈ 0.0751 µg/mL); in assay [9] it was 0.1 µM (≈ 0.0375 µg/mL); in assay [10], 0.1 µM (≈ 0.0375 µg/mL); in assay [11], 0.05 µM (≈ 0.0188 µg/mL); in [12], 0.1 µM (≈ 0.0375 µg/mL); in assay [16], 0.09 µM (≈ 0.0338 µg/mL). Also, it took 47 µM to reach half-maximal cytotoxicity in the assay with HepG2 (CC50).

As to `Cc1cc(NCCc2ccccc2)nc(NC(=N)Nc2ccc(Cl)cc2)n1`, the MIC90 in assay [1] turned out to be 2.77 µM (≈ 1.06 µg/mL); in assay [13], 3.12 µM (≈ 1.19 µg/mL); in [14] it was 3.12 µM (≈ 1.19 µg/mL); in assay [15] it was 6.25 µM (≈ 2.38 µg/mL); in assay [17], 1.15 µM (≈ 0.438 µg/mL). Also, the minimum inhibitory concentration (MIC) in [2] stood at 0.78 µM (≈ 0.297 µg/mL); in assay [3] it was 0.78 µM (≈ 0.297 µg/mL); in assay [4], 1.2 µM (≈ 0.457 µg/mL); in [5] it was 1.56 µM (≈ 0.594 µg/mL); in [6] it was 2.3 µM (≈ 0.876 µg/mL); in [7], 1.2 µM (≈ 0.457 µg/mL). Besides, the MIC in [8] is 1.2 µM (≈ 0.457 µg/mL); in [9], 0.6 µM (≈ 0.229 µg/mL); in assay [10], 0.78 µM (≈ 0.297 µg/mL); in [11] it was 0.6 µM (≈ 0.229 µg/mL); in assay [12] it was 0.78 µM (≈ 0.297 µg/mL); in assay [16], 3.12 µM (≈ 1.19 µg/mL). In the assay on HepG2, it took 6.5 µM to reach half-maximal cytotoxicity (CC50).

Consider `COc1cccc(-n2nnnc2S(C)(=O)=O)c1`, for which the MIC90 in assay [1] is 3.34 µM (≈ 0.849 µg/mL); in assay [13], 6.25 µM (≈ 1.59 µg/mL); in [14] it was 12.5 µM (≈ 3.18 µg/mL); in assay [15], 6.25 µM (≈ 1.59 µg/mL); in assay [17], 9.47 µM (≈ 2.41 µg/mL). Besides, the minimum inhibitory concentration (MIC) turned out to be 0.78 µM (≈ 0.198 µg/mL) in [2]; 1.2 µM (≈ 0.305 µg/mL) in [3]; 12.5 µM (≈ 3.18 µg/mL) in [4]; 25 µM (≈ 6.36 µg/mL) in assay [5]; 25 µM (≈ 6.36 µg/mL) in [6]; 9.4 µM (≈ 2.39 µg/mL) in assay [7]. The minimum inhibitory concentration (MIC) in assay [8] came to 25 µM (≈ 6.36 µg/mL); in assay [9] it was 12.5 µM (≈ 3.18 µg/mL); in assay [10], 50 µM (≈ 12.7 µg/mL); in [11] it was 19 µM (≈ 4.83 µg/mL); in assay [12] it was 50 µM (≈ 12.7 µg/mL); in [16] it was 12.5 µM (≈ 3.18 µg/mL). This molecule also came in with a CC50 in the assay on HepG2 of 1.7 µM.
